Experiments:
[1] = tested on: HeLa cells; test: Ca^2+-imaging of living cells; assay type: cell-based
Procedure: Ca^2+-imaging of living cells was carried out using CaTM-3-AM. In order to study the utility thereof, a comparison was made with CaTM-2-AM(N-[2-[(acetyloxy)]-2-oxoethyl]amino]-N-[2-[2-[2-[bis[2-[(acetyloxy)methoxy]-2-oxoethyl]amino]-5-[[4-(1,8-dichloro-2,9-dihydro-7-hydroxy-9,9-dimethyl-2-oxo-9-silaanthracen-10-yl)-3-methylbenzoyl]amino]phenoxy]ethoxy]phenyl]-glycine(acetyloxy)methyl ester), which has a methyl group at position 2 of the benzene ring instead of a carboxy group. HeLa cells were incubated for 30 minutes at 37° C. together with 3 μM of CaTM-2-AM or CaTM-3-AM in a Hank's balanced salt solution (HBSS) containing 0.03% DMSO. The cells were washed three times using HBSS, then HBSS was added and the cells were observed using a confocal microscope SP5 (Leica) with an excitation wavelength of 590 nm and a fluorescence wavelength of 610 to 680 nm.
Ca^2+ imaging was carried out during stimulation by histamine and ionomycin using cells to which CaTM-3-AM had been added. Histamine hydrochloride (1 μM) was added after 1 minute from the beginning of observation, and ionomycin (5 μM) was added after 4 minutes from the beginning of observation.

[2] = tested on: HeLa cells; test: Cell imaging using ZnTM-1; assay type: cell-based; details: 10 μM, 30 min at 37° C., HBSS 1% DMSO, ZnSO4 (50 μM)/pyrithione (5 μM), then TPEN (100 μM)
Procedure: Cell imaging was carried out using ZnTM-1. HeLa cells were incubated for 30 minutes at 37° C. together with 10 μM of ZnTM-1 in a Hank's balanced salt solution (HBSS) containing 1% DMSO. The mixture was washed once using HBSS, then HBSS was added and the cells were observed using an epifluorescence microscope IX-71 (Olympus) with an excitation wavelength of 565 to 585 nm and a fluorescence wavelength of 600 to 690 nm. The observation was carried out in every 30 seconds, ZnSO4 (50 μM) and pyrithione (5 μM), which is an ionophore, were added after 2 minutes and 30 seconds from the beginning of observation, and TPEN (100 μM), which is a cell-membrane-permeating zinc chelator, was added after 6 minutes from the beginning of observation.

[3] = physchem; assay type: physicochemical
Procedure: The optical characteristics, absorbance spectra, and fluorescence spectra of the resulting ZnTM-1 depending on pHs are shown in FIG. 1. The pH-induced changes were measured using ZnTM-1 (1 μM) in a buffer of 0.1M sodium phosphate containing 15% DMSO. pKa was determined by biphasic fitting using the absorbance at the absorbance maximum wavelength. EDTA (100 μM) was added in order to eliminate the effect of trace metal ions during the measurement of quantum yield when Zn^2+ had not been added, and then measurement was carried out.

[4] = Optical characteristics, Zn^2+ addition experiment; assay type: physicochemical; details: for Φf1: fluorescence quantum yield
Procedure: The optical characteristics, absorbance spectra, and fluorescence spectra of the resulting ZnTM-1 depending on pHs are shown in FIG. 1. The Zn^2+ addition experiment was carried out by adding ZnSO4 to a solution obtained by adding ZnTM-1 (1 μM) in a buffer of 0.1M HEPES (pH 7.4) containing 15% DMSO. pKa was determined by biphasic fitting using the absorbance at the absorbance maximum wavelength. EDTA (100 μM) was added in order to eliminate the effect of trace metal ions during the measurement of quantum yield when Zn^2+ had not been added, and then measurement was carried out.

[5] = ZnTM-1 1 μM, 0.1M HEPES (pH 7.4) containing 15% DMSO, Zn^2+ not added

For `CC(=O)OCOC(=O)CN(CC(=O)OCOC(C)=O)c1ccccc1OCCOc1cc(NC(=O)c2ccc(C3=C4C=CC(=O)C(Cl)=C4[Si](C)(C)c4c3ccc(O)c4Cl)c(C(=O)O)c2)ccc1N(CC(=O)OCOC(C)=O)CC(=O)OCOC(C)=O` [CaTM-3-AM, 5-[[[4-[bis[2-[(acetyloxy)methoxy]-2-oxoethyl]amino]-5-[2-[2-[bis[2-[(acetyloxy)methoxy]-2-oxoethyl]amino]phenoxy]ethoxy]-phenyl]amino]carbonyl]-2-(1,8-dichloro-2,9-dihydro-7-hydroxy-9,9-dimethyl-2-oxo-9-silaanthracen-10-yl)-benzoic acid], the “Brightness of fluorescence image” value ([1]; HeLa cells, 3 μM, 30 min at 37° C., HBSS 0.03% DMSO, excitation 590 nm, fluorescence 610 to 680 nm) was “brighter fluorescence image than does CaTM-2-AM”, the “Quantity of fluorescent probe taken into cells” value ([1]; HeLa cells, 3 μM, 30 min at 37° C., compared with CaTM-2-AM) was “a larger quantity of fluorescent probes is taken into cells” and the “Detection of variation in intracellular Ca^2+ during stimulation” value ([1]; histamine hydrochloride (1 μM) after 1 minute, ionomycin (5 μM) after 4 minutes) was “can be accurately ascertained”.

With `C[Si]1(C)C2=C(F)C(=O)C=CC2=C(c2ccc(C(=O)Nc3ccc(NCCN(Cc4ccccn4)Cc4ccccn4)cc3)cc2C(=O)O)c2ccc(O)c(F)c21` [ZnTM-1, 5-[[[4-[[2-[bis(2-pyridinylmethyl)amino]ethyl]amino]phenyl]amino]carbonyl]-2-(1,8-difluoro-2,9-dihydro-7-hydroxy-9,9-dimethyl-2-oxo-9-silaanthracen-10-yl)benzoic acid] the “Cell uptake and function as Zn^2+-detecting fluorescent probe” value [2] was “is taken into the cell and functions effectively as a Zn^2+-detecting fluorescent probe”, the pKa [3] was 7.2 and the “λabs (nm)” value [4, 5] was 589 nm. The “λf1 (nm)” value [4, 5] was 601 nm, the Φf1 ([4]; + 10 eq Zn^2+ (ZnSO4), 0.1M HEPES (pH 7.4) containing 15% DMSO) was 0.281 and the Φf1 ([4]; Zn^2+ not added, EDTA (100 μM) added) was 0.062.
